Experimental data reported in patent US20240350454A1, “BACTERIAL EFFLUX PUMP INHIBITORS AND METHODS OF USE” (THE REGENTS OF THE UNIVERSITY OF COLORADO, priority 2021, published 2024).

What was measured:
Format in all cases: cell-based
K. pneumoniae BAA-1705 [1] = assay: Ciprofloxacin MIC with selected compound in MHB; settings: Klebsiella pneumoniae, BAA1705, read-out: Ciprofloxacin MIC, antibiotic alone (row None), MHB
Protocol: (§1) MIC for the antibiotic alone (i.e., in the absence of the disclosed compounds) is provided in the first row labeled “None”. […] […] At this concentration (50 μg/mL), the compounds of the disclosure lacked intrinsic antibacterial activity but a significant improvement in efficacy was still observed. Thus, the compounds of the disclosure may be used to potentiate the activity of antibiotics that have lost their efficacy due to efflux.

[2] = system: S. enterica sp. Enterica S10801; assay: Doxycycline MIC with selected compound in MHB; settings: Salmonella enterica, antibiotic alone (row None), MHB
Protocol: (§2) The wild-type S. enterica serovar Typhimurium strain, SL1344, was initially isolated from the blood of an infected calf. For screening and validation in macrophages, SL1344 sifB::gfp was grown in Luria-Bertani Broth (LB) with 30 μg/ml streptomycin and 30 μg/ml kanamycin to saturation overnight, diluted to an OD of 0.001 and frozen in 100 μL aliquots in 20% glycerol at −80° C. Prior to infection, aliquots were grown in 5 mL cultures of LB with 30 μg/ml streptomycin and 30 μg/ml kanamycin for 18 hours at 37° C. with aeration. Bacterial strains were routinely grown in LB with antibiotics: 30 μg/ml streptomycin, 30 μg/ml kanamycin, 50 μg/ml ampicillin, 10 μg/ml tetracycline, and/or 1.15 μg/ml meropenem. The acrAB::kan and macAB::kan strains were constructed according to known methods. S. enterica subsp. enterica, serovar Typhimurium strain S10801, NR-22067 is a multidrug resistant isolate from a calf with sepsis. This strain and others as indicated were obtained through BEI resources, NIAID, NIH.
MIC for the antibiotic alone (i.e., in the absence of the disclosed compounds) is provided in the first row labeled “None”. […] At this concentration (50 μg/mL), the compounds of the disclosure lacked intrinsic antibacterial activity but a significant improvement in efficacy was still observed. […]

E. coli BAA-2340 [3] = assay: Doxycycline MIC with selected compound in MHB; settings: Escherichia coli, BAA2340, antibiotic alone (row None), MHB
Excerpt: (§3) MIC for the antibiotic alone (i.e., in the absence of the disclosed compounds) is provided in the first row labeled “None”. […] […] […] Thus, the compounds of the disclosure may be used to potentiate the activity of antibiotics that have lost their efficacy due to efflux.

K. pneumoniae BAA-1705 [4] = assay: Doxycycline MIC with selected compound in MHB; settings: Klebsiella pneumoniae, BAA1705, antibiotic alone (row None), MHB
Excerpt: as §3

K. pneumoniae BAA-2342 [5] = assay: Doxycycline MIC with selected compound in MHB; settings: Klebsiella pneumoniae, BAA2342, antibiotic alone (row None), MHB
Excerpt: as §3

E. cloacae BAA-2341 [6] = assay: Doxycycline MIC with selected compound in MHB; settings: Enterobacter cloacae, BAA2341, antibiotic alone (row None), MHB
Protocol: as §1

E. coli BAA-2340 [7] = assay: Chloramphenicol MIC with selected compound in MHB; settings: Escherichia coli, BAA2340, antibiotic alone (row None), MHB
Protocol: as §1

[8] = system: P. aeruginosa Focus MB0477; assay: Chloramphenicol MIC with selected compound in MHB; settings: Pseudomonas aeruginosa, FOCUSMB0477, antibiotic alone (row None), MHB
Protocol: as §1

A. baumannii MB306 = assay: Chloramphenicol MIC with selected compound in MHB; settings: Acinetobacter baumannii, antibiotic alone (row None), MHB
Excerpt: as §3

A. baumannii MB309 = assay: Chloramphenicol MIC with selected compound in MHB; settings: Acinetobacter baumannii, antibiotic alone (row None), MHB
Excerpt: as §3

E. cloacae BAA-2341 [9] = assay: Chloramphenicol MIC with selected compound in MHB; settings: Enterobacter cloacae, BAA2341, antibiotic alone (row None), MHB
Excerpt: as §3

K. pneumoniae BAA-2342 [10] = assay: Chloramphenicol MIC with selected compound in MHB; settings: Klebsiella pneumoniae, BAA2342, antibiotic alone (row None), MHB
Excerpt: as §3

[11] = system: S. enterica serovar Typhimurium SL1344 sifB::gfp in RAW264.7 macrophages; assay: SAFIRE assay, intracellular bacterial load in macrophages; settings: Salmonella enterica
Protocol: The following experiments were performed using the SAFIRE assay described in U.S. Publication 2020/0022961, which is incorporated by reference in its entirety for all purposes. SAFIRE (Screen for Anti-infectives using Fluorescence microscopy of IntracellulaR Enterobacteriaceae) uses cell culture as a surrogate to identify compounds that prevent intracellular replication of a model Gram-negative bacterial human pathogen. The method identifies compounds that prevent bacterial growth in broth culture and compounds that decrease the load of Gram-negative bacteria inside of macrophages at concentrations≤10 μM but have no effect on bacterial growth in standard Mueller Hinton broth (MHB) at 100 μM. Thus, SAFIRE enables the discovery of compounds that are effective against Gram-negative bacteria in host cells and in whole animals, whether or not they are antibacterial in broth.
as §2
(§4) Murine macrophage-like RAW 264.7 cells and HeLa human epithelial cells were obtained from the American Type Tissue Collection. BMDMs were isolated as previously described. Briefly, marrow was flushed from the femurs of 1- to 4-month-old 129SvEvTac mice (Taconic Laboratories) bred in-house. Mononuclear cells were separated using Histopaque-1083 (Sigma), washed, and directly seeded into assay plates at 1×10^5 cells/ml in complete medium supplemented with 35% conditioned media from 3T3 cells expressing MCSF. Media were refreshed three days later. After 1 week, media were replaced with 100 μL fresh media and cells were infected as described below. All three types of cells were grown in DMEM high glucose (Sigma) supplemented with 10% fetal bovine serum, 2 mM L-glutamine, 1 mM sodium pyruvate, 10 mM HEPES, and 50 μMβ-mercaptoethanol. Cells were maintained in a 5% CO2 humidified atmosphere at 37° C. For screening, frozen aliquots of RAW 264.7 were thawed and allowed to expand for three days prior to seeding; other experiments were performed with cultures between passages four and 20.
SAFIRE—RAW264.7 macrophages (7×103 in 40 μL or 5×104 in 100 μL) were seeded, respectively, in 384- or 96-well black-walled glass-bottomed plates (Brooks Automation). Twenty four hours post-seeding, bacteria in 20 or 50 μL PBS were added to a final concentration of 1×10^7 CFU/mL, conditions yielding infection of approximately 70% of macrophages at 18 hours post-infection with minimal macrophage toxicity. The sifB::gfp bacterial reporter strain was used to minimize green signal from extracellular bacteria. […] At two hours post-infection, 200 or 500 nL compound was added using a pin tool (CyBio) to yield a final concentration of 25 μM. Each assay plate included rifampicin and DMSO controls. In some experiments, media were removed and replaced with fresh media containing 40 μg/mL gentamicin and increasing concentrations of the compounds of the disclosure. […]

RAW264.7 macrophages = settings: mouse, 16 h
Excerpt: as §4
SAFIRE—RAW264.7 macrophages (7×103 in 40 μL or 5×104 in 100 μL) were seeded, respectively, in 384- or 96-well black-walled glass-bottomed plates (Brooks Automation). Twenty four hours post-seeding, bacteria in 20 or 50 μL PBS were added to a final concentration of 1×10^7 CFU/mL, conditions yielding infection of approximately 70% of macrophages at 18 hours post-infection with minimal macrophage toxicity. The sifB::gfp bacterial reporter strain was used to minimize green signal from extracellular bacteria. […] At two hours post-infection, 200 or 500 nL compound was added using a pin tool (CyBio) to yield a final concentration of 25 μM. Each assay plate included rifampicin and DMSO controls. In some experiments, media were removed and replaced with fresh media containing 40 μg/mL gentamicin and increasing concentrations of the compounds of the disclosure. At 17.5 hours post-infection, PBS containing MitoTracker Red CMXRos (Life Technologies) was added to a final concentration of 300 nM or 100 nM, for 384- or 96-well, respectively. Thirty minutes later, 16% paraformaldehyde was added to a final concentration of […] and incubated at room temperature for 15 minutes. Wells were washed twice with PBS and stained for 20 minutes with 1 μMDAPI; wells were washed twice and stored in 90% glycerol in PBS until imaging. The Z′-factor of the screening platform was 0.59 and 0.48 in 96-well and 384-well plates, respectively, within published ranges for complicated cell-based screens.
In addition, toxicity was measured according the following procedure: 1) analyzing macrophage cell morphology; and 2) using MATLAB to count cells (cells that lift up and float after treatment are not within the appropriate Z plane to be counted, and thus are considered dead). If 70% of the cells are adherent (as measured by comparing the number of cells before and after treatment), the compound is considered not toxic. Compounds that pass #1 and #2 above are considered to have a toxicity “>50 μM”. […]

E. Cloacae MB315 = assay: PMB MIC with selected compound in MHB; settings: Enterobacter cloacae, selected compound 50 μg/mL in MHB
Protocol: as §1

SMILES	IC50 [11]	Toxicity (RAW264.7 macrophages)	other results
O=C(O)c1cn(C2CC2)c2cc(N3CCNCC3)c(F)cc2c1=O [Ciprofloxacin, ciprofloxacin]	–	–	MIC (K. pneumoniae BAA-1705 [1]): > 64 µg/mL
C[C@H]1c2cccc(O)c2C(=O)C2=C(O)[C@]3(O)C(=O)C(C(N)=O)=C(O)[C@@H](N(C)C)[C@@H]3[C@@H](O)[C@@H]21 [Doxycycline, doxycycline]	–	–	MIC [2]: 32 µg/mL; MIC (E. coli BAA-2340 [3]): 8 µg/mL; MIC (K. pneumoniae BAA-1705 [4]): 4 µg/mL; MIC (K. pneumoniae BAA-2342 [5]): 8 µg/mL; MIC (E. cloacae BAA-2341 [6]): 8 µg/mL
O=C(N[C@H](CO)[C@H](O)c1ccc([N+](=O)[O-])cc1)C(Cl)Cl [Chloramphenicol, chloramphenicol]	–	–	MIC (E. coli BAA-2340 [7]): 64 µg/mL; MIC [8]: 64 µg/mL; MIC (A. baumannii MB306): > 64 µg/mL; MIC (A. baumannii MB309): > 64 µg/mL; MIC (E. cloacae BAA-2341 [9]): 16 µg/mL; MIC (K. pneumoniae BAA-2342 [10]): 64 µg/mL
N[C@H]1CCN(C[C@H](O)COc2ccc(Cl)c(Cl)c2)C1 [Compound 14]	> 1000 nM	>50 µM	–
CN(CCCCN)CC(O)COc1cc(Cl)cc(Cl)c1 (stereo not shown) [Compound 19]	< 1000 nM	<50 but >25 μM	MIC (E. Cloacae MB315): 32 µg/mL
NC1CCN(CC(O)COc2cccc(C(F)(F)F)c2)CC1 (stereo not shown) [Compound 12]	< 1000 nM	>50 µM	–
N[C@H]1CCN(C[C@@H](O)COc2ccc(Cl)c(Cl)c2)C1 [Compound 16]	< 1000 nM	>50 µM	MIC (E. Cloacae MB315): 32 µg/mL
N[C@@H]1CCN(CC(O)COc2ccc(Cl)c(Cl)c2)C1 (stereo partly shown) [Compound 9]	< 1000 nM	>50 µM	–
CC1(N)CCN(CC(O)COc2cc(Cl)cc(Cl)c2)CC1 (stereo not shown) [Compound 17]	< 1000 nM	<25 µM	MIC (E. Cloacae MB315): 16 µg/mL
COCCCN(C)C1CCN(CC(O)COc2ccc(Cl)c(Cl)c2)CC1 (stereo not shown) [Compound 11]	< 1000 nM	>50 µM	–
NC1CCN(CC(O)COc2ccc(Cl)cc2)CC1 (stereo not shown) [Compound 6]	< 1000 nM	>50 µM	–
